Values of other authors, collected in patent US6656473B2, “Tryptophan source from plants and uses thereof” (priority 2000, dated 2003).

Biological target: plasma albumin (Homo sapiens, UniProt P02768)
Conditions: after absorption

plasma albumin, sequence (P02768 25-609): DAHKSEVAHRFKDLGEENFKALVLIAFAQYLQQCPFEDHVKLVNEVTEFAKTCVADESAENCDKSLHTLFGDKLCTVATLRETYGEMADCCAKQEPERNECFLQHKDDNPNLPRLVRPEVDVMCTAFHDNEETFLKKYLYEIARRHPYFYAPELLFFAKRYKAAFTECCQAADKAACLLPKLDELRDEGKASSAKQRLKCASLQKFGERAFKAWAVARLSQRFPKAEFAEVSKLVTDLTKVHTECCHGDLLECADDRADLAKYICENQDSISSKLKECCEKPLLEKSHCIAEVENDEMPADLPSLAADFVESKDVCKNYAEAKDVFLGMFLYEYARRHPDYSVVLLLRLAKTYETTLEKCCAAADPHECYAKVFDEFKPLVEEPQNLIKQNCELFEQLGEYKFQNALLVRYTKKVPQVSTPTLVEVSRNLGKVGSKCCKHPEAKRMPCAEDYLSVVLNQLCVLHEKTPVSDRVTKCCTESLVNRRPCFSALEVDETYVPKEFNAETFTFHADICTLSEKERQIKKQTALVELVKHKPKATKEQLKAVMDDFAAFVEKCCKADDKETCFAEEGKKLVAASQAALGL

Q: With `N[C@@H](Cc1c[nH]c2ccccc12)C(=O)O` [tryptophan] as the compound, how does the “Share circulating as free tryptophan” value read?
A: 20%

Q: And the “Share circulating in the blood bound to plasma albumin” value?
A: approximately 80%
